For 23 compounds, Kd results are on record in US9725465B2, “Biaryl acetamide compounds and methods of use thereof” (Ambit Biosciences Corporation, priority 2013, dated 2017).

The target in assay [1] is FLT3 kinase (Homo sapiens (Human), UniProt P36888). Kind of assay: Competition binding assay (Kd), FLT3.
In assay [2] the target is KIT kinase (Homo sapiens (Human), UniProt P10721). As to the kind of experiment: Competition binding assay (Kd), KIT. As to the method:
In certain embodiments, competition binding assays were performed as described in Fabian et al., Nature Biotechnology 2005, 23, 329-336.
Competition binding assays used herein were developed, validated and performed as described in Fabian et al., Nature Biotechnology 2005, 23, 329-336. Kinases were produced as fusions to T7 phage (See, Fabian et al. or WO04/015142) or alternatively, the kinases were expressed in HEK-293 cells and subsequently tagged with DNA for PCR detection (See, WO08/005,310). […] The liganded beads were blocked with excess biotin and washed with blocking buffer (SeaBlock (Pierce), 1% BSA, 0.05% Tween 20, 1 mM DTT) to remove unbound ligand and to reduce non-specific binding. […] Test compounds were prepared as 100× stocks in DMSO and diluted into the aqueous environment. Kds were determined using an eleven point threefold serial dilutions. DMSO or control compounds were was added to control assays lacking a test compound. […] The kinase concentration in the eluates was measured by quantitative PCR. […]

Chain of KIT kinase (P10721 26-976): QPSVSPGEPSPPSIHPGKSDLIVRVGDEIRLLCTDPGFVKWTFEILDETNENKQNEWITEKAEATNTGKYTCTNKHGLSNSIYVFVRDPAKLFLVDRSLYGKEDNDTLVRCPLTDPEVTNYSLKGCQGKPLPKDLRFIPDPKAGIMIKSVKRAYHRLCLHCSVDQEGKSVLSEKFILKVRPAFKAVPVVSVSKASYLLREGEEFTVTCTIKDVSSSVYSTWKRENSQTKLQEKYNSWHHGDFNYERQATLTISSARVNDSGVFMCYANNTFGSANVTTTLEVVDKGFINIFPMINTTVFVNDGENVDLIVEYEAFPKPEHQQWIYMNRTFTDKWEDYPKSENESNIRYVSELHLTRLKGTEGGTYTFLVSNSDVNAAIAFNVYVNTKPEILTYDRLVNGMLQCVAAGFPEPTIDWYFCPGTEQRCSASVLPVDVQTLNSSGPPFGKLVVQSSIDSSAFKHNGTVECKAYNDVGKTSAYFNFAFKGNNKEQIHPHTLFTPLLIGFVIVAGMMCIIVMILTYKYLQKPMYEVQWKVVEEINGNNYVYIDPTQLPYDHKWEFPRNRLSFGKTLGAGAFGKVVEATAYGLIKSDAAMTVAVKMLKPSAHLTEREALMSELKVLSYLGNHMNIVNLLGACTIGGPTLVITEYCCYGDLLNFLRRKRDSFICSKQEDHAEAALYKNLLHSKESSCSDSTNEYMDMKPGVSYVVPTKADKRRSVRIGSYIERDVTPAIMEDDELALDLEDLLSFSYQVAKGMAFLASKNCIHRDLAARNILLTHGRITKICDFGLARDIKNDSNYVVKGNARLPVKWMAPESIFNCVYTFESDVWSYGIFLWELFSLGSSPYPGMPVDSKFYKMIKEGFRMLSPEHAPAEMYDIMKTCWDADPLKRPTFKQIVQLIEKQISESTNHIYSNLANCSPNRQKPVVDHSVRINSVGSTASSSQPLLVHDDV
Chain of FLT3 kinase (P36888 27-993): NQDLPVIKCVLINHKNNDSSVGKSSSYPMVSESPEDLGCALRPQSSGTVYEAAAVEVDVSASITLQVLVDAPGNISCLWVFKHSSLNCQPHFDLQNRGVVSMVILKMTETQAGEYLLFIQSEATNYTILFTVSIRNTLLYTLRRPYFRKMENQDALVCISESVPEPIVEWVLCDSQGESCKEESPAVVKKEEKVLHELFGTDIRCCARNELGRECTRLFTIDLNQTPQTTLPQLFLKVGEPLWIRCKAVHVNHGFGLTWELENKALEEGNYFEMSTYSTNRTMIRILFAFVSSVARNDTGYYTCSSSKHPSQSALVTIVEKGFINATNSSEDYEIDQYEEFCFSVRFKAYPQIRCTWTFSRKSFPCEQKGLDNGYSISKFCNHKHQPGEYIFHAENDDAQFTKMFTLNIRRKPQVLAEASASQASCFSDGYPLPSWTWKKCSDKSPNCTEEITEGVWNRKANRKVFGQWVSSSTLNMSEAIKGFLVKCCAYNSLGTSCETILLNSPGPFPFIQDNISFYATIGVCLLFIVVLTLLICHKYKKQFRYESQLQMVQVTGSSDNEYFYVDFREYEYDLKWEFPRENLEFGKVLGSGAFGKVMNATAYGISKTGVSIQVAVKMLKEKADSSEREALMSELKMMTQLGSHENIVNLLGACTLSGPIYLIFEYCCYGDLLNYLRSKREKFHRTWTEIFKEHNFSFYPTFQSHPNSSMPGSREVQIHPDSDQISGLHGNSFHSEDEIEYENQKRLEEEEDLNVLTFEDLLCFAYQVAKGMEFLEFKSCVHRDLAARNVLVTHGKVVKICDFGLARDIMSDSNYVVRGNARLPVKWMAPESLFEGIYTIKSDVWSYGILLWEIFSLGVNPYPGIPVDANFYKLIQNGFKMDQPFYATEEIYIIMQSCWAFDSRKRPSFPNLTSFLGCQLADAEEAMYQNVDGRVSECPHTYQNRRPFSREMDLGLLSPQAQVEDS

For orientation: Kd means the constant that tells how readily two partners part at equilibrium. With `COc1cc2nc(-c3ccc(CC(=O)Nc4cc(C5(C(F)(F)F)CC5)on4)c(F)c3)cnc2cc1OCC#N` [Example 183, 2-[4-[6-(cyanomethoxy)-7-methoxy-quinoxalin-2-yl]-2-fluoro-phenyl]-N-[5-[1-(trifluoromethyl)cyclo-propyl]isoxazol-3-yl]acetamide], the Kd in assay [1] (competition binding assay) and in assay [2] (competition binding assay) was less than 5 nM each time.
For `COc1cc2ncc(-c3ccc(CC(=O)Nc4cc(C(C)(C)C(F)(F)F)on4)c(F)c3)nc2cc1O` [Example 184, 2-[2-fluoro-4-(7-hydroxy-6-methoxy-quinoxalin-2-yl)phenyl]-N-[5-(2,2,2-trifluoro-1,1-dimethyl-ethyl)isoxazol-3-yl]acetamide], the equilibrium dissociation constant (Kd) in assay [1] (competition binding assay) and in assay [2] (competition binding assay) was less than 5 nM each time.
Consider `COc1cc2nc(-c3ccc(CC(=O)Nc4cc(C5(C(F)(F)F)CC5)on4)c(F)c3)cnc2cc1OCCn1cncn1` [Example 185, 2-[2-fluoro-4-[7-methoxy-6-[2-(1,2,4-triazol-1-yl)ethoxy]quinoxalin-2-yl]phenyl]-N-[5-[1-(trifluoro-methyl)cyclopropyl]isoxazol-3-yl]acetamide], for which the Kd in assay [1] (competition binding) and in assay [2] (competition binding) was less than 5 nM in each case.
Regarding `COc1cc2nc(-c3ccc(CC(=O)Nc4cc(C5(C(F)(F)F)CC5)on4)c(F)c3)cnc2cc1OCC(=O)N(C)C` [Example 186, 2-[4-[6-[2-(dimethylamino)-2-oxo-ethoxy]-7-methoxy-quinoxalin-2-yl]-2-fluoro-phenyl]-N-[5-[1-(trifluoro-methyl)cyclopropyl]isoxazol-3-yl]acetamide], the dissociation constant Kd in assay [1] (competition binding) and in assay [2] (competition binding) was less than 5 nM throughout.
Turning to `COc1cc2ncc(-c3ccc(CC(=O)Nc4cc(C(C)(C)C(F)(F)F)on4)c(F)c3)nc2cc1OCCN1CCOCC1` [Example 187, 2-[2-fluoro-4-[6-methoxy-7-(2-morpholino-ethoxy)quinoxalin-2-yl]phenyl]-N-[5-(2,2,2-trifluoro-1,1-dimethyl-ethyl)isoxazol-3-yl]acetamide], the Kd in assay [1] (competition binding) and in assay [2] (competition binding) was less than 5 nM in each case.
For the compound `COCCOc1cc2cc(-c3ccc(CC(=O)Nc4cc(C5(C(F)(F)F)CC5)on4)c(F)c3)cnc2cc1OC` [Example 188, 2-[2-fluoro-4-[7-methoxy-6-(2-methoxyethoxy)-3-quinolyl]phenyl]-N-[5-[1-(trifluoromethyl)cyclo-propyl]isoxazol-3-yl]acetamide], the Kd in assay [1] (competition binding) and in assay [2] (competition binding) was less than 5 nM in each case.
As for `COc1cc2ncc(-c3ccc(CC(=O)Nc4cc(C(C)(C)C(F)(F)F)on4)c(F)c3)cc2cc1OCCN1CCOCC1` [Example 189, 2-[2-fluoro-4-[7-methoxy-6-(2-morpholinoethoxy)-3-quinolyl]phenyl]-N-[5-(2,2,2-trifluoro-1,1-dimethyl-ethyl)isoxazol-3-yl]acetamide], the Kd in assay [1] (competition binding) and in assay [2] (competition binding) was less than 5 nM throughout.
`COc1cc2ncc(-c3ccc(CC(=O)Nc4cc(C5(C(F)(F)F)CC5)on4)c(F)c3)cc2cc1OCCN1CCOCC1` [Example 190, 2-[2-fluoro-4-[7-methoxy-6-(2-morpholinoethoxy)-3-quinolyl]phenyl]-N-[5-[1-(trifluoromethyl)cyclo-propyl]isoxazol-3-yl]acetamide]: the Kd in assay [1] (competition binding) and in assay [2] (competition binding) was less than 5 nM in each case.
Turning to `COc1cc2ncc(-c3ccc(CC(=O)Nc4cc(C(C)(C)C(F)(F)F)on4)c(F)c3)nc2cc1OCCN1CC[C@H](O)C1` [Example 191, 2-[2-fluoro-4-[7-[2-[(3S)-3-hydroxypyrrolidin-1-yl]ethoxy]-6-methoxy-quinoxalin-2-yl]phenyl]-N-[5-(2,2,2-trifluoro-1,1-dimethyl-ethyl)isoxazol-3-yl]acetamide], the equilibrium dissociation constant (Kd) in assay [1] (competition binding) and in assay [2] (competition binding) was less than 5 nM throughout.
Regarding `COc1cc2ncc(-c3ccc(CC(=O)Nc4cc(C5(C(F)(F)F)CC5)on4)c(F)c3)cc2cc1OCCN` [Example 192, 2-[4-[6-(2-aminoethoxy)-7-methoxy-3-quinolyl]-2-fluoro-phenyl]-N-[5-[1-(trifluoromethyl)cyclo-propyl]isoxazol-3-yl]acetamide], the Kd in assay [1] (competition binding) and in assay [2] (competition binding) was less than 5 nM throughout.
Take `COc1cc2ncc(-c3ccc(CC(=O)Nc4cc(C5(C(F)(F)F)CC5)on4)c(F)c3)cc2cc1OCCNC(C)=O` [Example 193, 2-[4-[6-(2-acetamidoethoxy)-7-methoxy-3-quinolyl]-2-fluoro-phenyl]-N-[5-[1-(trifluoromethyl)cyclo-propyl]isoxazol-3-yl]acetamide]: the dissociation constant Kd in assay [1] (competition binding) and in assay [2] (competition binding) was less than 5 nM each time.
`COc1cc2ncc(-c3ccc(CC(=O)Nc4cc5n(n4)CCC5(C)C)c(F)c3)nc2cc1OC` [Example 194, 2-[4-(6,7-dimethoxyquinoxalin-2-yl)-2-fluoro-phenyl]-N-(4,4-dimethyl-5,6-dihydropyrrolo[1,2-b]pyrazol-2-yl)acetamide]: the Kd in assay [1] (competition binding) and in assay [2] (competition binding) was less than 5 nM throughout.
For `COc1cc2nc(-c3ccc(CC(=O)Nc4cc(C5(C(F)(F)F)CC5)on4)c(F)c3)cnc2cc1OCCCO` [Example 195, 2-[2-fluoro-4-[6-(3-hydroxypropoxy)-7-methoxy-quinoxalin-2-yl]phenyl]-N-[5-[1-(trifluoromethyl)cyclo-propyl]isoxazol-3-yl]acetamide], the Kd in assay [1] (competition binding) and in assay [2] (competition binding) was less than 5 nM each time.
Consider `CNCCOc1cc2nc(-c3ccc(CC(=O)Nc4cc(C(C)(C)C(F)(F)F)on4)c(F)c3)cnc2cc1OC` [Example 196, 2-[2-fluoro-4-[6-methoxy-7-[2-(methyl-amino)ethoxy]quinoxalin-2-yl]phenyl]-N-[5-(2,2,2-trifluoro-1,1-dimethyl-ethyl)isoxazol-3-yl]acetamide], for which the dissociation constant (Kd) in assay [1] (competition binding) and in assay [2] (competition binding) was less than 5 nM throughout.
As to `COc1cc2cc(-c3ccc(CC(=O)Nc4cc(C(C)(C)C(F)(F)F)on4)c(F)c3)cnc2cc1OCCN1CCOCC1` [Example 197, 2-[2-fluoro-4-[6-methoxy-7-(2-morpholinoethoxy)-3-quinolyl]phenyl]-N-[5-(2,2,2-trifluoro-1,1-dimethyl-ethyl)isoxazol-3-yl]acetamide], the Kd in assay [1] (competition binding) and in assay [2] (competition binding) was less than 5 nM throughout.
With `COc1cc2ncc(-c3ccc(CC(=O)Nc4cc(C(C)(C)C(F)(F)F)on4)c(F)c3)nc2cc1OCCN(C)C(C)=O` [Example 198, 2-[4-[7-[2-[acetyl(methyl)amino]ethoxy]-6-methoxy-quinoxalin-2-yl]-2-fluoro-phenyl]-N-[5-(2,2,2-trifluoro-1,1-dimethyl-ethyl)isoxazol-3-yl]acetamide], the Kd in assay [1] (competition binding) and in assay [2] (competition binding) was less than 5 nM in each case.
`COc1cc2cc(-c3ccc(CC(=O)Nc4cc(C(C)(C)C(F)(F)F)on4)c(F)c3)cnc2cc1OCCN1CC[C@@H](O)C1` [Example 199, 2-[2-fluoro-4-[7-[2-[(3R)-3-hydroxypyrrolidin-1-yl]ethoxy]-6-methoxy-3-quinolyl]phenyl]-N-[5-(2,2,2-trifluoro-1,1-dimethyl-ethyl)isoxazol-3-yl]acetamide]: the dissociation constant (Kd) in assay [1] (competition binding) and in assay [2] (competition binding) was less than 5 nM in each case.
Regarding `COc1cc2cc(-c3ccc(CC(=O)Nc4cc(C(C)(C)C(F)(F)F)on4)c(F)c3)cnc2cc1OCCN(C)CCO` [Example 200, 2-[2-fluoro-4-[7-[2-[2-hydroxy-ethyl(methyl)amino]ethoxy]-6-methoxy-3-quinolyl]phenyl]-N-[5-(2,2,2-trifluoro-1,1-dimethyl-ethyl)isoxazol-3-yl]acetamide], the dissociation constant Kd in assay [1] (competition binding) and in assay [2] (competition binding) was less than 5 nM each time.
In the case of `COc1cc2cc(-c3ccc(CC(=O)Nc4cc(C(C)(C)C(F)(F)F)on4)c(F)c3)cnc2cc1OCCNCCO` [Example 201, 2-[2-fluoro-4-[7-[2-(2-hydroxyethylamino)ethoxy]-6-methoxy-3-quinolyl]phenyl]-N-[5-(2,2,2-trifluoro-1,1-dimethyl-ethyl)isoxazol-3-yl]acetamide], the Kd in assay [1] (competition binding) and in assay [2] (competition binding) was less than 5 nM throughout.
`COc1cc2ncc(-c3ccc(CC(=O)Nc4cc(C5(C(F)(F)F)CC5)on4)c(F)c3)nc2cc1OC[C@@H](C)O` [Example 202, 2-[2-fluoro-4-[7-[(2R)-2-hydroxypropoxy]-6-methoxy-quinoxalin-2-yl]phenyl]-N-[5-[1-(trifluoromethyl)cyclo-propyl]isoxazol-3-yl]acetamide]: the Kd in assay [1] (competition binding) and in assay [2] (competition binding) was less than 5 nM throughout.
Take `COc1cc2ncc(-c3ccc(CC(=O)Nc4cc(C(C)(C)C(F)(F)F)on4)c(F)c3)nc2cc1OCCCN1CCOCC1` [Example 203, 2-[2-fluoro-4-[6-methoxy-7-(3-morpholino-propoxy)quinoxalin-2-yl]phenyl]-N-[5-(2,2,2-trifluoro-1,1-dimethyl-ethyl)isoxazol-3-yl]acetamide]: the dissociation constant (Kd) in assay [1] (competition binding) and in assay [2] (competition binding) was less than 5 nM in each case.
For the compound `COc1cc2ncc(-c3ccc(CC(=O)Nc4cc(C(C)(C)C(F)(F)F)on4)c(F)c3)cc2cc1OCCN` [Example 204, 2-[4-[6-(2-aminoethoxy)-7-methoxy-3-quinolyl]-2-fluoro-phenyl]-N-[5-(2,2,2-trifluoro-1,1-dimethyl-ethyl)isoxazol-3-yl]acetamide], the Kd in assay [1] (competition binding) and in assay [2] (competition binding) was less than 5 nM each time.
For `COc1cc2ncc(-c3ccc(CC(=O)Nc4cc(C(C)(C)C(F)(F)F)on4)c(F)c3)cc2cc1OCCNC(C)=O` [Example 205, 2-[4-[6-(2-acetamidoethoxy)-7-methoxy-3-quinolyl]-2-fluoro-phenyl]-N-[5-(2,2,2-trifluoro-1,1-dimethyl-ethyl)isoxazol-3-yl]acetamide], the Kd in assay [1] (competition binding) and in assay [2] (competition binding) was less than 5 nM throughout.
